Legend:
Type in all cases: cell-based, human
[1] = test system: IMR32 (reduced PSMD5) and Kelly neuroblastoma cells; assay: Viability of IMR32 versus Kelly neuroblastoma cells (CellTiter-Glo); details: ABT-263 versus more specific BCL2, BCL-XL and MCL-1 inhibitors
Method: To determine whether these compounds also differentially affect cells with reduced expression of PSDMS, IMR32 and Kelly cells were each cultured in the presence of ABT-263, disulfiram, or elesclomol across a range of concentrations. Cell viability was measured by CellTiter-Glo® Luminescent Cell Viability Assay 72 hours after addition of the compound to cells. The fold viability relative to culture in the absence of the compound was determined for each cell line. […] In the experiment shown in FIG. 24, the lowest lower concentration of ABT-263 and disulfiram tested was 1 uM.
ABT-263 targets several members of the BCL2 family, including BCL2 and BCL-XL.

[2] = test system: T47D cells; assay: The glucose/galactose drug screen; details: 10 mM Glucose or Galactose, Selleck anti cancer and natural product libraries
Method: We conducted a second set of drug screens to identify unique sensitivities conferred by the Hi-OXPHOS state using parental T47D breast cancer cells (without 19S subunit suppression). For this screen, we used the NPC and CDL libraries as they contained the greatest number of hits in the Lo19S screen. We tested over 800 compounds at multiple concentrations and measured their effects on relative cell growth/viability when cells were grown under aerobic glycolysis conditions (glucose-supplemented medium) or forced mitochondrial respiration conditions (galactose-supplemented medium).
The glucose/galactose drug screen—T47D cells growing in regular media were collected counted and after centrifugation cells were re-suspended in RPM1 media without glucose containing 10% dialyzed serum with the addition of either 10 mM glucose or 10 mM galactose, Cells were then plated at 1000 cells/well in 384-well opaque, white assay plates (Coming, N.Y.), 50 uL per well, and incubated overnight at 37°C./5% CO2. Application of the drug libraries and cell viability was executed as described above for the Lo19S drug screen.

[3] = test system: T47D cells with doxycycline inducible PSMD2 KD (Lo19S) versus control cells; assay: Lo19S T47D drug screen (PSMD2 KD versus control cells, CellTiter-Glo); details: for viability of PSMD2 KD versus control cells: Selleck natural product library (NPC) and NIH bioactive compound library, selectivity less than for the anti-cancer library hits; for viability of PSMD2 KD versus control cells (log2 (shPSMD2/Control)): T47D, Lo19S state by dox-inducible PSMD2 shRNA, compound library screen, 72 h, CellTiter-Glo
Method: The effect of each drug on viability of cells was calculated by averaging the duplicate experiments. The data is plotted in FIG. 16 as the log2 of the ratio of viability of PSMD2 KD versus control cells (log2 (shPSMD2/Control)). […] The Selleck natural product library (NPC) comprising 502 compounds in 5 doses and the. NIH bioactive compound library that includes 731 compounds in 4 doses were also screened using the same system.
A deeper understanding of the proteasome inhibitor resistant state could yield insights into the molecular mechanisms activated by cells to cope with proteotoxic stress and elucidate new therapeutic strategies for cancer. With these goals in mind, we screened mechanistically diverse small molecule libraries to identify compound sensitivities altered by the Lo19S and Hi-OXPHOS states. An initial screen was conducted in the isogenic T47D model with transient induction of the Lo19S state as described above, We evaluated >4300 mechanistically well-defined compounds within 4 libraries. The compounds included approved cancer drugs (Selleck anti-cancer library: CDL), common natural products (Natural product library: NPC) and an ^-NIH bioactives library (NIH). Each of these compounds was tested at ≥4 concentrations. (Table S5, data not shown), An additional 2866 compounds from the Boston University's Chemical Methodology and Library Development (CMLD-BU) small molecule collection was screened at a single dose (BULL, see Table S5).
(§1) Generation of the Lo19S T47D cell line—For the generation of the T47D Tet-inducible PSMD2 knockdown cell line—the TRIPZ vector with an inducible shRNA targeting PSMD2 was purchased from Dharmacon (clone V3THS_403760). It was introduced to the T47D cells according to manufactures protocol and cells were selected with puromycin 1 g/ml for one week. The cells were exposed to doxycycline for 24 hours and cells were FACS sorted for the top 10% of most RFP expressing cells (highest expression of shRNA). The cells were further cultured in the absence of doxycycline and PSMD2 knockdown was induced as specified in the text.
After 48 hours the cells were collected counted and plated (in the absence of dox) at 1000 cells/well in 384-well opaque, white assay plates (Coming, NY), 50 uL per well, and incubated overnight at 37° C./5% CO2. Compound stocks from the Cancer drug library containing 349 bioactive compounds that were arrayed in dose 10 nM, 100 nM, 1 uM, 10 uM (Selleck anti-cancer compound library L3000), the natural products library containing 502 compounds that were utilized in 5 doses (dilution of 1:1000 of 2ug/ml, 0.2 ug/ml, 0.002/ug/ml, 0.0002 ug/ml), the NIH bioactive library including 731 drugs in dose of 10 nM, 100 nM, 1 uM, 10 uM and the Boston University's CMLD (Chemical Methodology and Library Development) compound deck containing 2866 compounds in one dose (10 uM), including novel chemotypes that uniquely probe three-dimensional space by employing stereochemical and positional variation within the molecular framework as diversity elements in library design. 50 nl of compounds were pin-transferred (V&P Scientific, CA, pin tool mounted onto Tecan Freedom Evo 150 MCA96 head, Tecan, Calif.) into duplicate assay plates and incubated for 72 h. The DMSO content was 0.1% within each well, Per plate, there are 32 wells of DMSO vehicle control and 32 wells of positive control compounds. After three days of incubation, 10 uL of CellTiter-Glo (Promega, Wis.) was added to each well, incubated for 10 minutes and the luminescence output was read on the M1000 Infinite Pro plate reader (Tecan, Calif.).

[4] = test system: T47D cells; assay: Drug library screen (Selleck anti-cancer, NPC, NIH bioactive), PSMD2 KD vs control T47D cells; details: Selleck anti-cancer compound library screen
Method: Schematic representation of the drug screen setup. (FIG. 37A) 147D cells harboring a doxycycline-inducible PSMD2 shRNA were grown in the presence or absence of doxycycline for 48 hr. Cells were then collected, washed, and plated in the absence of doxycycline for 24 hr prior to exposure different compounds. Relative cell numbers were measured 3 days later.
The relative viability of the Lo19S versus control cells was calculated for replica experiments and the log2 of the ratio is plotted. […] The relative viability of the respiring cells (Hi-OXPHOS) (gal) versus the control cells (glu) was calculated for replica experiments and the log2 of the ratio is plotted.
After 48 hours the cells were collected, counted, and plated at 1000 cells/well in 384 well plates in duplicates for each cell line. Compounds from the Selleck Chemicals anti-cancer compound library (349 drugs in 4 concentrations; […]) were pinned the next day and viability was measured after 72 hours by the reduction of Resazurin (Ex=530 run, Em=590nin). (See FIG. 37A for schematic of screen.)

[5] = test system: T47D cells; assay: Cell viability, T47D cells with doxycycline-inducible PSMD2 shRNA (KD) vs control
Method: FIGS. 37A-37E: Subunit suppression results in highly specific drug sensitivity alteration. Schematic representation of the drug screen setup. (FIG. 37A) 147D cells harboring a doxycycline-inducible PSMD2 shRNA were grown in the presence or absence of doxycycline for 48 hr. Cells were then collected, washed, and plated in the absence of doxycycline for 24 hr prior to exposure different compounds. Relative cell numbers were measured 3 days later. […] (FIGS. 37C-37E) The relative viability of the PSMD2 knockdown (KD) versus the control was calculated for replica experiments and the log2 of the ratio is plotted for 349 compounds from the Selleck anti-cancer L3000 drug library that were tested in 4 concentrations (FIG. 37C), the Selleck natural product library (NPC) comprising 502 compounds in 5 doses (FIG. 37D), and the NIH bioactive compound library that includes 731 compounds in 4 doses (FIG. 37E). Specific compounds are annotated.
The effect of transient PSMD2 reduction on growth of T47D cells in the presence of different proteasome inhibitors (bortezomib, MLN9708, carfilzomib, oprozornib) was tested. T47D cells harboring a doxycycline inducible control shRNA (GFP) or a doxycycline-inducible PSMD2 shRNA (TurhoRFP) were incubated with doxycycline for 3 days. Cells were then split and grown in the absence of Dox and proteasome inhibitors were then added at various concentrations. Cells were maintained in culture and then counted.
as §1, with “For” for “Generation of the Lo19S T47D cell line—For”, “line- the” for “line—the”, “Dhannacon” for “Dharmacon”, “μg/ml” for “g/ml”, “relevant Examples. The TRIPZ control GFP vector was created by removing the turboRFP from the TRIPZ control vector by digestion with Agel and ClaI and replacing it with GFP amplified with primers flanking with Agel and Clal restriction sites.” for “text.”
Cell Viability Assay—Relative cell growth and survival were measured in 96-well microplate format in the shRNA experiments and in 384 well format in the drug toxicity assays, by using the fluorescent detection of resazurin dye reduction as an endpoint (544 nm excitation and 590 run emission). 2,500 cells in 96 wells format or 1,000 cells in 384 well format were plated 24 hours before compound exposure (for 72 hours or indicated time). Each analysis was performed at least with three replicas.

[6] = test system: T47D cells harboring a doxycycline inducible PSMD2 KD shRNA construct; assay: Viability of PSMD2 knockdown versus control T47D cells, dose response and combinations (CellTiter-Glo); details: T47D, transient PSMD2 suppression versus control
Method: Cell viability was measured by CellTiter-Glot Luminescent Cell Viability Assay 72 hours after addition of the compounds to cells.
Cell viability was measured by CellTiter-Glo® Luminescent Cell Viability Assay 72 hours after addition of the compounds were added to cells.
Cell viability was measured by CellTiter-Glolk Luminescent Cell Viability Assay 72 hours after addition of the compounds to cells.
To directly test whether altered cellular metabolism can modulate the sensitivity of cancer cells to proteasome inhibitors, we engineered the breast cancer cell line T47D into Lo19S and increased OXPHOS states. Initially, we reconstituted the Lo19S state by transient suppression of the PSMD2 subunit of the 19S complex using an inducible shRNA.
To induce a high OXPHOS (Hi-OXPHOS) state, we changed the carbon source in the cell culture media from glucose to galactose, which is poorly fermentable. This method has been previously shown to drive glutamine utilization by mitochondria and to thus increase mitochondrial respiration (Gohil et al., 2010). […] We reasoned that the Hi-OXPHOS signature we identified in Lo19S patient tumors may cooperate with the Lo19S state to further promote the ability of the cells to withstand proteotoxic stress.
Cell viability—where indicated relative cell number following different drug treatment was conducted by plating cells at 1000 cells/well in 384 well plates. Indicated concentrations of compounds were added 24 hour after plating at least in triplicate for each condition. Viability was measured 72 hours after drug addition using cell titer-glo (Promega) according to manufactures protocol. Same protocol was applied for the experiments conducted for the Lo19S T47D, MCF7 and T47D in the context of altered carbon source only the cells were plated at 1000 cells/well in RPMI media (without glucose and with dialyzed serum) containing either 10 mM Glucose or lOmM galactose.

Cc1nn(C)c(COc2ccc(N3CCN(S(=O)(=O)N(C)C)CC3)cc2)c1-c1cccc2c(CCCOc3cccc4ccccc34)c(C(=O)O)n(CCN3CCOCC3)c12 [A-1210477]
preferential sensitivity of IMR32 versus Kelly cells, compared among BCL2 family inhibitors [1]: much greater for ABT-263

COc1cc2c(cc1OC)[C@@H]1C(=O)c3ccc4c(c3O[C@@H]1CO2)C=CC(C)(C)O4 [Degeulin]
relative viability change of cells grown in glucose versus galactose [2]: increased sensitivity

CN1C(=O)[C@]23CC4=CC=C[C@H](O)[C@H]4N2C(=O)[C@@]1(CO)SS3 [Gliotoxin]
viability of PSMD2 KD versus control cells [3]: selectively toxic to cells with PSMD2 knockdown

COc1ccc(-c2ccc3c(N4CCOCC4)nc(N4C[C@@H](C)O[C@@H](C)C4)nc3n2)cc1CO [Ku-0063794]
viability of PSMD2 KD versus control cells (log2 (shPSMD2/Control)) [3]: selectively reduce the viability of PSMD2 KD cells versus control cells
growth inhibition of T47D cells with reduced level of PSMD2 vs control T47D cells [4]: selectively inhibit growth

CC[C@@H]1/C=C/C=C/C[C@H](C)[C@H](O)[C@](C)(O)C(=O)[C@H](C)[C@@H](O)[C@H](C)C(=O)[C@H](C)[C@@H](O)[C@H](C)/C=C/C(=O)O[C@H]2[C@@H](C)[C@@H](CC1)O[C@@]1(CC[C@@H](C)[C@@H](C[C@H](C)O)O1)[C@@H]2C [Oligomycin A]
relative viability change of cells grown in glucose versus galactose [2]: increased sensitivity

Nc1ccc2ncnc(NCCc3ccc(Oc4ccccc4)cc3)c2c1 [QNZ]
relative viability change of cells grown in glucose versus galactose [2]: increased sensitivity

C=C(C)[C@H]1Cc2c(ccc3c2O[C@@H]2COc4cc(OC)c(OC)cc4[C@@H]2C3=O)O1 [Rotenone]
relative viability change of cells grown in glucose versus galactose [2]: increased sensitivity

CC(C)C[C@H](NC(=O)[C@H](CCc1ccccc1)NC(=O)CN1CCOCC1)C(=O)N[C@@H](Cc1ccccc1)C(=O)N[C@@H](CC(C)C)C(=O)[C@@]1(C)CO1 [carfilzomib]
resistance of cells harboring PSMD2 shRNA vs parental line (EC50) ([5]; T47D, transient PSMD2 reduction): EC50 values increased considerably

Nc1nc(Cl)nc2c1ncn2[C@H]1C[C@H](O)[C@@H](CO)O1 [cladribine, 2-chlorodeoxyadenosine]
viability of PSMD2 KD versus control cells (log2 (shPSMD2/Control)) [3]: selectively reduce the viability of PSMD2 KD cells versus control cells
growth inhibition of T47D cells with reduced level of PSMD2 vs control T47D cells [4]: selectively inhibit growth

CCCCc1oc2ccccc2c1C(=O)c1cc(I)c(OCCN(CC)CC)c(I)c1 [cordarone]
viability of PSMD2 KD versus control cells [3]: selectively toxic to cells with PSMD2 knockdown

CC(C)C[C@H](NC(=O)CNC(=O)c1cc(Cl)ccc1Cl)B(O)O [ixazomib]
increase of proliferation inhibition EC50 on inducing the Lo19S state [6]: ~4 fold
fold increase in EC50 induced by transient PSMD2 knockdown (KD) ([5]; T47D cells, PSMD2 KD vs control): 50-100 fold

Source: patent publication US20180353445A1, “METHODS AND COMPOSITIONS RELATING TO PROTEASOME INHIBITOR RESISTANCE” (Whitehead Institute for Biomedical Research, priority 2017, published 2018)
